In ChEMBL document CHEMBL1141723, “Specific targeting of metzincin family members with small-molecule inhibitors: progress toward a multifarious challenge” (Bioorg Med Chem, 2008):
Each block holds one compound with its values, some of them ahead of it. Calls of active or inactive are those of the source. No cut-off for these calls is given here.

Assays:
[1] = biological target: T1, Collagenase 3 (Homo sapiens, UniProt P45452); assay: Inhibition of MMP13 at 10 uM
[2] = biological target: T2, Matrix metalloproteinase-9 (Homo sapiens, UniProt P14780); assay: Inhibition of MMP9 at 10 uM
T2 sequence (P14780 whole entry): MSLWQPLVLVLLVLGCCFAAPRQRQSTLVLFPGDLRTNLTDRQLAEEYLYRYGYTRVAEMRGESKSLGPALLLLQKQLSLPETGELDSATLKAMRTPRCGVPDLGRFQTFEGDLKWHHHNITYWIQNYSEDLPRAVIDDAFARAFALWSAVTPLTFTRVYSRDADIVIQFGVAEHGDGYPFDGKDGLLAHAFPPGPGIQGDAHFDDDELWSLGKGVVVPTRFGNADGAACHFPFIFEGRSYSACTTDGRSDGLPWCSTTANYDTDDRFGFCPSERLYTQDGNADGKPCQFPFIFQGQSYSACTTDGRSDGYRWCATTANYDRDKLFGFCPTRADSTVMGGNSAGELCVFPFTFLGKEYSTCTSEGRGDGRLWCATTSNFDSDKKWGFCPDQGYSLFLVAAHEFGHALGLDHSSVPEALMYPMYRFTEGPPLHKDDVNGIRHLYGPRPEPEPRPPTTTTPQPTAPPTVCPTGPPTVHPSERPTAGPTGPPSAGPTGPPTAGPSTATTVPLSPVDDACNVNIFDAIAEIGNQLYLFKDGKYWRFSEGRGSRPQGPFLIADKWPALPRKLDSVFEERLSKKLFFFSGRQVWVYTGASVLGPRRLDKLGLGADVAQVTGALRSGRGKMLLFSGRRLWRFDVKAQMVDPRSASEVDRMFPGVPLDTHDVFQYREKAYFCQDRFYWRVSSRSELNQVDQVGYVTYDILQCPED

[3] = biological target: T3, Interstitial collagenase (Homo sapiens) (UniProt P03956); assay: Inhibition of MMP1 at 10 uM
T3 sequence (whole entry): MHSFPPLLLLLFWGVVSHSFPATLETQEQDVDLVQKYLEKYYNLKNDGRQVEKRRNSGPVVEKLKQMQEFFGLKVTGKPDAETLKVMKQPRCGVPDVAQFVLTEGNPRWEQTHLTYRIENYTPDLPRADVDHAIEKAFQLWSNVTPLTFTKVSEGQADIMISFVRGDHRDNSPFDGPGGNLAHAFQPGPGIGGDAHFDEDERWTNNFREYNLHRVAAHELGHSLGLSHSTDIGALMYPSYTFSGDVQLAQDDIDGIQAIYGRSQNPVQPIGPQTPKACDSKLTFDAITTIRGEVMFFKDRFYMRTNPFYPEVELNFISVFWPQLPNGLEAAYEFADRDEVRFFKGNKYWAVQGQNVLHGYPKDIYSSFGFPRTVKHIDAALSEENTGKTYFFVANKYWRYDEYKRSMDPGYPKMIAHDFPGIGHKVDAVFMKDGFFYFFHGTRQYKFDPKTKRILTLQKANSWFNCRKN

[4] = Selectivity for TACE over MMP1
[5] = Selectivity for TACE over MMP2
[6] = Selectivity for TACE over ADAM10
[7] = Selectivity for TACE over MMP14
[8] = Selectivity for TACE over MMP3
[9] = Selectivity for TACE over MMP7
[10] = Selectivity for TACE over BMP1
[11] = biological target: T4, Matrix metalloproteinase-14 (Homo sapiens, UniProt P50281); assay: Inhibition of MMP14
[12] = biological target: Disintegrin and metalloproteinase domain-containing protein 17 (Homo sapiens, UniProt P78536); assay: Inhibition of TACE
Chain of Disintegrin and metalloproteinase domain-containing protein 17 (Homo sapiens, UniProt P78536) (P78536 whole entry, the tested form may be a part): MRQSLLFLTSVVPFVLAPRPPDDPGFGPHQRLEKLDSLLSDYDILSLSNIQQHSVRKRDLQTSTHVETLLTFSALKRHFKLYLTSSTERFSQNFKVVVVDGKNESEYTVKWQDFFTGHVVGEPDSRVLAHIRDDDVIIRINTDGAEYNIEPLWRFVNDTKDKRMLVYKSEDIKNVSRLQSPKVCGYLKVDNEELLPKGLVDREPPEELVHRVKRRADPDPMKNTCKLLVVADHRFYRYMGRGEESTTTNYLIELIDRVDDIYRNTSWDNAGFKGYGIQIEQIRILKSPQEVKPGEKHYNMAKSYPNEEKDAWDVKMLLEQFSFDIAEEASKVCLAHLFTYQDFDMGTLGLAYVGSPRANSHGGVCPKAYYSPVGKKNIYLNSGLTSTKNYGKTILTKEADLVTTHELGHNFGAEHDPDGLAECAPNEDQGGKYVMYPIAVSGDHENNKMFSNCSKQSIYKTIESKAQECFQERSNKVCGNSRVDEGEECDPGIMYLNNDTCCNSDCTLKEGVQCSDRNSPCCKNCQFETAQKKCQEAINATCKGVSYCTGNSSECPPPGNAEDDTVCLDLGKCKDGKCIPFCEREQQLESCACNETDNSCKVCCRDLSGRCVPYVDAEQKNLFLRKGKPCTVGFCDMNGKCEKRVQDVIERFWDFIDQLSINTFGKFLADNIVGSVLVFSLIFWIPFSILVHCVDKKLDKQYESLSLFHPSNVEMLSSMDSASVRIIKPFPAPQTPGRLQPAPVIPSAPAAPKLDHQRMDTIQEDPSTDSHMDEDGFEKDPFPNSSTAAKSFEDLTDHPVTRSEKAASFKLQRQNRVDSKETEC

[13] = biological target: T2, Matrix metalloproteinase-9; assay: Inhibition of MMP9
[14] = biological target: T5, Interstitial collagenase (Homo sapiens, UniProt P03956)
T5 sequence (P03956 whole entry): T3 sequence (whole entry)

[15] = biological target: T1, Collagenase 3; assay: Inhibition of MMP13
[16] = biological target: T6, Disintegrin and metalloproteinase domain-containing protein 10 (Homo sapiens, UniProt O14672); assay: Inhibition of ADAM10
T6 sequence (O14672 whole entry): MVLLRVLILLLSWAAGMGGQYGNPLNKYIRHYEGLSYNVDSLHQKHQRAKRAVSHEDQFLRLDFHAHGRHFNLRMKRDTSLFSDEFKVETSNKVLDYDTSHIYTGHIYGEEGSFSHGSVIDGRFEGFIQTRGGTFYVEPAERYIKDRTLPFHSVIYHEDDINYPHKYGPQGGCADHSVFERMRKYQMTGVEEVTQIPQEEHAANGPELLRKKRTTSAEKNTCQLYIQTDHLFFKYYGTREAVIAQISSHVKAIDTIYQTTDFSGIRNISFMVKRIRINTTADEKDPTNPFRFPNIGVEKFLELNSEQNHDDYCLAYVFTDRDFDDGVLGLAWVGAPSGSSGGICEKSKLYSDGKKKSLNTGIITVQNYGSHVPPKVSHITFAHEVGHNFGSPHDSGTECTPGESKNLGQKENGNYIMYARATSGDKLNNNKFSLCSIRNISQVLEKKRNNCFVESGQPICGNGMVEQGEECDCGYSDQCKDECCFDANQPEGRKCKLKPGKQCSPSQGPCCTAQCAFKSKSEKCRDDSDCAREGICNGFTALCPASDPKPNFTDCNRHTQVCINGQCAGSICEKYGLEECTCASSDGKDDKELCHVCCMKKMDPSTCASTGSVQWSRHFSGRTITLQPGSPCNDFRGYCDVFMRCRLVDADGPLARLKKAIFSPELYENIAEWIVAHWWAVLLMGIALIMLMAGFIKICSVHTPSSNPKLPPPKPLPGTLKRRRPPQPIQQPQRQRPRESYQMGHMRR

[17] = biological target: T7, Matrilysin (Homo sapiens, UniProt P09237)
T7 sequence (P09237 whole entry): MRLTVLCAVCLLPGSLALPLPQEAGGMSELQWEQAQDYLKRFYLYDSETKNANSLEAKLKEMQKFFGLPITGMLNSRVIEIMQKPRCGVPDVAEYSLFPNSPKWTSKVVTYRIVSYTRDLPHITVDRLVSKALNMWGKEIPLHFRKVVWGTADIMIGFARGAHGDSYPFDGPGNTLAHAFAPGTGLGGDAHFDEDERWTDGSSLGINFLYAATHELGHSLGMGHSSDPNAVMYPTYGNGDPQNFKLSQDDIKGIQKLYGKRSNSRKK

[18] = biological target: T8, Neutrophil collagenase (Homo sapiens, UniProt P22894); assay: Inhibition of MMP8
[19] = biological target: T9, 72 kDa type IV collagenase (Homo sapiens, UniProt P08253)
Target sequence in this assay (P08253 whole entry): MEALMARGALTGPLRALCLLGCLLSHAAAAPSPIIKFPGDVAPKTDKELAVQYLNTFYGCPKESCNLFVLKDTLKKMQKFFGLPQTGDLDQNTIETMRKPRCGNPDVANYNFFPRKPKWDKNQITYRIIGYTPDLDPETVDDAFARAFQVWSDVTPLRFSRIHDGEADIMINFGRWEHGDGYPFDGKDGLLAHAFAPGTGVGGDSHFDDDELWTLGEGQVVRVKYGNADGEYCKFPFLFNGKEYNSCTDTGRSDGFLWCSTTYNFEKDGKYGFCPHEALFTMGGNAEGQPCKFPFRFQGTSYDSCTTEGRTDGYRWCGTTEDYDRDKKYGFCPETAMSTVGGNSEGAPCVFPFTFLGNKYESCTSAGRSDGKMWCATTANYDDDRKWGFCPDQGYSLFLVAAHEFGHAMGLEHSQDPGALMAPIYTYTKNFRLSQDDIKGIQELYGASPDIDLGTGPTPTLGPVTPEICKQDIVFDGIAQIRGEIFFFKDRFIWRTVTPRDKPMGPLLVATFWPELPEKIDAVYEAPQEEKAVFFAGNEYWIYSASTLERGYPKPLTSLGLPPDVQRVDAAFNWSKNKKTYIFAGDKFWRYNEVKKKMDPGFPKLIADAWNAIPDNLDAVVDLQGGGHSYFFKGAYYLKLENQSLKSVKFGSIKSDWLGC

[20] = biological target: T10, Stromelysin-1 (Homo sapiens, UniProt P08254)
Target sequence in this assay (P08254 whole entry): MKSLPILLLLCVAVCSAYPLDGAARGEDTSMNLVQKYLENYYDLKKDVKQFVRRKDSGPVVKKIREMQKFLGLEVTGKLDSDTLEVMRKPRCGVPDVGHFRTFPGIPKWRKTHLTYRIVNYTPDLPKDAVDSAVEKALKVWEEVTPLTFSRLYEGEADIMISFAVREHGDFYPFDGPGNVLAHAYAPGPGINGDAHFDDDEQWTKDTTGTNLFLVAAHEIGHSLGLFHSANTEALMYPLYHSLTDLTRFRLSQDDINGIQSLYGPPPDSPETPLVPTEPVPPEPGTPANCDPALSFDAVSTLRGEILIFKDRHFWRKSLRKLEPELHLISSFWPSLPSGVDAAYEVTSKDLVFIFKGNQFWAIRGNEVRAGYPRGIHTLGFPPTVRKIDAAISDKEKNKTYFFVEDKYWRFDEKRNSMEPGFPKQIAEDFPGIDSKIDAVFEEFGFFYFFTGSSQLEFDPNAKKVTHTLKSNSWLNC

[21] = Inhibition of bovine aggrecanase; design: species or system Bos taurus
[22] = biological target: Disintegrin and metalloproteinase domain-containing protein 17 (Sus scrofa, UniProt O77636); assay: Inhibition of pig TACE
[23] = biological target: T3, Interstitial collagenase (Homo sapiens); assay: Inhibition of MMP1 at 100 uM
[24] = Selectivity for pig TACE over MMP2
[25] = Selectivity for pig TACE over MMP9
[26] = Selectivity for pig TACE over MMP8
[27] = Selectivity for pig TACE over MMP3
[28] = Selectivity for pig TACE over MMP1
[29] = Selectivity for pig TACE over MMP7
[30] = biological target: A disintegrin and metalloproteinase with thrombospondin motifs 5 (Homo sapiens, UniProt Q9UNA0); assay: Inhibition of ADAMTS5
Chain of A disintegrin and metalloproteinase with thrombospondin motifs 5 (Q9UNA0 whole entry): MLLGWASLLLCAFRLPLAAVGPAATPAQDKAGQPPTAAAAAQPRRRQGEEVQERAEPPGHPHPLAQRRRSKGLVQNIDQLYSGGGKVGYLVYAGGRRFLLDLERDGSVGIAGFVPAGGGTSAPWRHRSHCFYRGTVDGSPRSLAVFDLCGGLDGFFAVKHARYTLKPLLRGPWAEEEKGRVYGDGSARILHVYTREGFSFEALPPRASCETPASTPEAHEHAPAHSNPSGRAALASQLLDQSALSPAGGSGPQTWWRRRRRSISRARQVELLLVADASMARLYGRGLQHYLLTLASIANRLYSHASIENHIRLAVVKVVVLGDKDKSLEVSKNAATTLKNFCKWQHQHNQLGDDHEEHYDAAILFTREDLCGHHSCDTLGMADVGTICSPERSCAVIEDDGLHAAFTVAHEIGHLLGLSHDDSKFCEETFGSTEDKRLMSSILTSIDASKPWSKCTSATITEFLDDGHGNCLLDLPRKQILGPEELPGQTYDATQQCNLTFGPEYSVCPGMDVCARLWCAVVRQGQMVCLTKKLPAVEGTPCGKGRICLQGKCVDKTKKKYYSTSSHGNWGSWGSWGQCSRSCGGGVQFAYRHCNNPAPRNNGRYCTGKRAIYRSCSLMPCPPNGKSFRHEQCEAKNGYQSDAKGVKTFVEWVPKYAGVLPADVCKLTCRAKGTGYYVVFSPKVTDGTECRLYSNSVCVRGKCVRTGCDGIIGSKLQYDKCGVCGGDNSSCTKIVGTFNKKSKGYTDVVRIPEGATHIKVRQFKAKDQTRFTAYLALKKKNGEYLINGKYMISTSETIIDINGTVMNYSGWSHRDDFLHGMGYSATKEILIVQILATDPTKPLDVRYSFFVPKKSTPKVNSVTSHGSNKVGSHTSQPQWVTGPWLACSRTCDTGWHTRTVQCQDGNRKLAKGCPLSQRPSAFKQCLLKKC

[31] = biological target: T11, Macrophage metalloelastase (Homo sapiens, UniProt P39900); assay: Inhibition of MMP12
Target sequence in this assay (P39900 whole entry): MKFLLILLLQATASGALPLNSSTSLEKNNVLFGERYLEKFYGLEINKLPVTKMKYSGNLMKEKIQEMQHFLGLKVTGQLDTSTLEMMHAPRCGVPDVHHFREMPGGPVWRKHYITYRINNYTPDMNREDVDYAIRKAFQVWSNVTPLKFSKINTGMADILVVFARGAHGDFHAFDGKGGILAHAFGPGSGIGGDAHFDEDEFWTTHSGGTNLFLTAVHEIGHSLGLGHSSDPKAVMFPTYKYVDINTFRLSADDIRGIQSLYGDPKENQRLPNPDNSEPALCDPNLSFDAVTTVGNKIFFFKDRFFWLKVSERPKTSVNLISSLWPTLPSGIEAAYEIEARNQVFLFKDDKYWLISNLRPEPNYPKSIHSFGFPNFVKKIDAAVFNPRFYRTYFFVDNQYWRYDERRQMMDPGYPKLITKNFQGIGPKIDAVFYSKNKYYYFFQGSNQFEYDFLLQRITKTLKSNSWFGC

[32] = biological target: T9, 72 kDa type IV collagenase; assay: Inhibition of MMP2 up to 100 uM
[33] = biological target: T8, Neutrophil collagenase; assay: Inhibition of MMP8 up to 100 uM
[34] = biological target: T10, Stromelysin-1; assay: Inhibition of MMP3 up to 100 uM
Target sequence in this assay (P08254 100-477 limits assumed): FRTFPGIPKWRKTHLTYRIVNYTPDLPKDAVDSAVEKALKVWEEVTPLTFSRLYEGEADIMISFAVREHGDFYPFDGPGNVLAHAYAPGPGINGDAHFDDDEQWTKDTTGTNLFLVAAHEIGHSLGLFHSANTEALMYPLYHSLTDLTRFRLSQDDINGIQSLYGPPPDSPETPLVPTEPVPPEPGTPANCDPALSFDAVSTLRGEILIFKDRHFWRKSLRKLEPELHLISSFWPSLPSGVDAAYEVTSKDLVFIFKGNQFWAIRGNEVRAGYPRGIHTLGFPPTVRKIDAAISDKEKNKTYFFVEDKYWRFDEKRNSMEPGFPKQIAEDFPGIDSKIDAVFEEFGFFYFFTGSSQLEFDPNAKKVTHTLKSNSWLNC

[35] = biological target: T11, Macrophage metalloelastase; assay: Inhibition of MMP12 up to 100 uM
Target sequence in this assay (P39900 106-470 limits assumed): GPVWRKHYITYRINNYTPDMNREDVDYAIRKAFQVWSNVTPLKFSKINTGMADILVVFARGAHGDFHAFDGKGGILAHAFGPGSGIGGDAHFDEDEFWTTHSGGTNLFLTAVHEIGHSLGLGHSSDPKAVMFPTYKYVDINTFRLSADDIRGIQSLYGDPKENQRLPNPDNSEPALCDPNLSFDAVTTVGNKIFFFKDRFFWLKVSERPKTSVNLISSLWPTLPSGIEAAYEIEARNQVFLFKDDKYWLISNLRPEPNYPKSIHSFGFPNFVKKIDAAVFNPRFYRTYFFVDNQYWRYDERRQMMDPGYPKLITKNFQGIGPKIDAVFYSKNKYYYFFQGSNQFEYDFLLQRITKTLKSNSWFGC

[36] = biological target: T2, Matrix metalloproteinase-9; assay: Inhibition of MMP9 up to 100 uM
[37] = biological target: T4, Matrix metalloproteinase-14; assay: Inhibition of MMP14 up to 100 uM
[38] = biological target: T12, Matrix metalloproteinase-17 (Homo sapiens) (UniProt Q9ULZ9); assay: Inhibition of MMP17 up to 100 uM
T12 sequence (whole entry): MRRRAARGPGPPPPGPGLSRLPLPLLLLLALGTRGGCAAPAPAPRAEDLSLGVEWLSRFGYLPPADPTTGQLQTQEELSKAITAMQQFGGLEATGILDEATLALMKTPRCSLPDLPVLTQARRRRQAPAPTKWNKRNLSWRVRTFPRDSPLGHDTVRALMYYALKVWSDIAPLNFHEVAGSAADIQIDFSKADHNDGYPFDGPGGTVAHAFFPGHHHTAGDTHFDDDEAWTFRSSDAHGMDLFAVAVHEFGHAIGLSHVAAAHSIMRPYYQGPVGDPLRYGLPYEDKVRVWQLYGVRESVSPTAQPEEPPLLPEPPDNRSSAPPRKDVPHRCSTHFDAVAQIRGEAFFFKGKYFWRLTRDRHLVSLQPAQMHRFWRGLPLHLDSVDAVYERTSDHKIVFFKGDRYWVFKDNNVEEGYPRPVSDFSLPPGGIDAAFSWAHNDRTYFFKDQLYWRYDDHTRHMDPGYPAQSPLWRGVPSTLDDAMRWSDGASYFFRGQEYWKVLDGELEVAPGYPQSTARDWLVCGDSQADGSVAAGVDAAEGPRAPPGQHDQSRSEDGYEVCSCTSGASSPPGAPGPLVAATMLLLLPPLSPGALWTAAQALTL

[39] = biological target: T13, Matrilysin (Homo sapiens) (UniProt P09237); assay: Inhibition of MMP7 up to 100 uM
T13 sequence (whole entry): T7 sequence (P09237 whole entry)

inhibition [1]: 56% | inhibition [2]: 52% | inhibition [3]: 52%
Structure (SMILES): CC#CCOc1ccc(S(=O)(=O)C2(C(=O)NO)CCN(c3ccc(Cl)cc3)CC2)cc1

fold change (FC) [4]: > 8300 | fold change (FC) [5]: 3400 | fold change (FC) [6]: 4 | fold change (FC) [7]: 770 | fold change (FC) [8]: 1300 | fold change (FC) [9]: > 8300 | fold change (FC) [10]: 1400
Structure (SMILES): COC(=O)[C@]1(c2cccc(OCc3cc(C)nc4ccccc34)c2)C[C@H]1C(=O)NO

Structure (SMILES): CC#CCOc1ccc(S(=O)(=O)N[C@@H](C(=O)NO)[C@H](C)O)cc1
IC50 [11]: 582 nM | IC50 [12]: 2 nM | IC50 [13]: 777 nM | IC50 [14]: 2470 nM | IC50 [15]: 96 nM | IC50 [16]: 1090 nM | IC50 [17]: 961 nM | IC50 [18]: 35 nM

IC50 [11]: 930 nM | IC50 [13]: 560 nM | IC50 [14]: 5900 nM | IC50 [19]: 750 nM | IC50 [20]: 2.1 nM
Structure (SMILES): COC[C@@H](NC(=O)[C@@H](NC(=O)[C@H](CCCc1ccc(-c2ccccc2)c(C)c1)CC(=O)NO)C(C)(C)C)c1ccccc1

IC50 [21]: 12 nM
Structure (SMILES): O=C(NO)[C@@H](NCC1CC1)[C@@H](Cc1cccc(O)c1)C(=O)N[C@H]1c2ccccc2C[C@H]1O

Structure (SMILES): Cc1cc(COc2ccc(C(=O)Nc3ccccc3C(=O)c3c[nH]c(=O)[nH]3)cc2)c2ccccc2n1
IC50 [22]: 9 nM | Ki [17]: > 636 nM

inhibition [23]: 20%
Structure (SMILES): COC[C@@H](NC(=O)[C@@H](NC(=O)[C@H](CCCc1ccc(-c2ccccc2)c(C)c1)CC(=O)O)C(C)(C)C)c1ccccc1

IC50 [21]: 8 nM | Ki [13]: < 1 nM | Ki [14]: 5250 nM | Ki [19]: > 3000 nM | Ki [15]: > 5000 nM | Ki [20]: > 4500 nM
Structure (SMILES): CC1(CN[C@H](C(=O)NO)[C@@H](Cc2cccc(O)c2)C(=O)N[C@H]2c3ccccc3C[C@H]2O)CC1

fold change (FC) [24]: > 30000 | fold change (FC) [25]: > 14000 | fold change (FC) [26]: 5500 | fold change (FC) [27]: 427 | fold change (FC) [28]: > 30000 | fold change (FC) [29]: 200
Structure (SMILES): Cc1cc(COc2ccc(C(=O)N[C@@H]3CCOC[C@@H]3C(=O)NO)cc2)c2ccccc2n1

Ki [30]: 1900 nM
Structure (SMILES): O=C(N[C@@H]1CCOC[C@@H]1C(=O)NO)c1ccc(Cn2c(C(F)(F)F)nc3ccccc32)cc1

IC50 [12]: 2040 nM | IC50 [16]: 97 nM | IC50 [31]: 564 nM
Structure (SMILES): CN1CC2(CC2)C[C@H](C(=O)NO)[C@H]1C(=O)N1CCN(c2ccc(C(F)(F)F)cn2)CC1

Activity [32]: inactive | Activity [33]: inactive | Activity [34]: inactive | Activity [35]: inactive | Activity [23]: inactive | Activity [36]: inactive | Activity [37]: inactive | Activity [38]: inactive | Activity [39]: inactive
Structure (SMILES): Cn1c(=O)n(Cc2ccc(C(=O)O)cc2)c(=O)c2cc(C#CCc3ccccc3)ccc21

Structure (SMILES): O=S(=O)(CC1CS1)c1ccc(Oc2ccccc2)cc1 (stereo not drawn)
Ki [12]: 3700 nM
